{"source": "patent US5872126A", "about": "“Methods and compositions for treating preterm labor” (priority 1997, dated 1999)", "tested_on": "parturition in the rat", "assay": "Parturition with test compound and progesterone antagonist RU-486 (Example 3)", "type": "in vivo, Sprague-Dawley rat", "conditions": "test compound 20 mg/kg/day (Group 3)", "description": "In order to determine if the effects in the experiments conducted in Examples 1 and 2 were due to decreased progesterone catabolism associated with inhibition of 5α-reductase by the 5α-reductase type 1 inhibitor 3-oxo-4-aza-4,7β-dimethyl-16β-(4-chlorophenoxy)-5α-androstane (\"test compound\"), the following study was performed with the 5α-reductase inhibitor 3-oxo-4-aza-4,7β-dimethyl-16β-(4-chlorophenoxy)-5α-androstane and the progesterone antagonist RU-486.\nFifty-six pregnant female Sprague-Dawley rats (Charles River Laboratories, Raleigh, N.C.), approximately 10.5 weeks old weighing from 212 to 319 grams were employed in the study. They were fed and housed as described in EXAMPLE 1. The females were assigned to the following groups based on a weight independent random allocation scheme:\nControl (Control article)\ntest compound @ 20 mg/kg/day\nA dose of 10 mg/kg off RU-486 was selected based on the studies of Abdellilah et al., Progesterone and Mifepristone modify principally the response of circular myometrium to oxytocin in preparturient rats: comparison with response to acetylcholine and to calcium J. Pharmacol. and Exp. Therp.\nThe drugs were administered by oral gavage. The control article and vehicle consisted of 0.5% methylcellulose in deionized water with 0.02% sodium lauryl sulfate (SLS) and were prepared on a weekly basis and refrigerated when not in use. The test compound formulation (4 mg/mL, in vehicle) was prepared on a weekly basis and was refrigerated when not in use. The RU-486 formulation (2 mg base compound/mL, in 0.5% methylcellulose in deionized water) was prepared on a daily basis.", "note": "Several values for one entry are separate records, joined by “and”; a condition that tells them apart may be missing. Equal values may be shown once.", "data": [{"smiles": "C[C@H]1C[C@H]2N(C)C(=O)CC[C@]2(C)[C@H]2CC[C@]3(C)C[C@@H](Oc4ccc(Cl)cc4)C[C@H]3[C@H]12", "note": "[test compound, 3-oxo-4-aza-4,7β-dimethyl-16β-(4-chlorophenoxy)-5α-androstane]", "values": [{"measurement": "number of females completing parturition", "setting": "delivery day GD 22.0", "value": 1}, {"measurement": "number of females completing parturition", "setting": "delivery day GD 23.0", "value": 2}, {"measurement": "number of females completing parturition", "setting": "delivery day GD 24", "value": 3}, {"measurement": "Sacrificed Early (on GD 24 due to failure to initiate or complete parturition)", "value": 7}, {"measurement": "females that failed to initiate or complete parturition", "value": "drug related increase in females that failed to initiate or complete parturition"}, {"measurement": "Mean Length of Gestation ± SD", "setting": "only females completing delivery, 20 mg/kg/day", "value": "23.3 days and 23.3 ± 0.8 days"}]}]}
